ChEMBL document CHEMBL5034010, “Novel Cephalosporin Conjugates Display Potent and Selective Inhibition of Imipenemase-Type Metallo-β-Lactamases” (J Med Chem, 2021)
Converted amounts (≈) assume the structure as drawn. The source made the active and inactive calls. The calls are words filed in the database; no cut-off is given here.

What was measured:
Enterobacter cloacae [1] = assay: Inhibition of Metallo-beta-lactamase IMP-1 in Enterobacter cloacae clinical isolate assessed as MIC for meropenem antibacterial activity at 64 ug/ml (Rvb =16 ug/ml); conditions: dose 64.0 µg/ml
Escherichia coli [2] = assay: Inhibition of Metallo-beta-lactamase NDM-1 in Escherichia coli clinical isolate assessed as fold reduction in meropenem MIC at 32 ug/ml; conditions: dose 32.0 µg/ml
Klebsiella pneumoniae [3] = assay: Antibacterial activity against beta-lactamase IMP-28 producing Klebsiella pneumoniae clinical isolate measured upto 128 ug/ml; format: functional, organism-based
[4] = Inhibition of Escherichia coli beta-lactamase NDM-1 using nitrocefin chromogenic substrate measured after 15 to 60 min at 25 degC by microplate reader
Klebsiella pneumoniae [5] = assay: Inhibition of Metallo-beta-lactamase IMP-28 in Klebsiella pneumoniae clinical isolate assessed as fold reduction in meropenem MIC at 64 ug/ml; conditions: dose 64.0 µg/ml
[6] = Inhibition of Klebsiella pneumoniae beta-lactamase IMP-28 using nitrocefin chromogenic substrate measured after 15 to 60 min at 25 degC by microplate reader
Enterobacter cloacae [7] = assay: Inhibition of Metallo-beta-lactamase IMP-1 in Enterobacter cloacae clinical isolate assessed as fold reduction in meropenem MIC at 64 ug/ml; conditions: dose 64.0 µg/ml
Escherichia coli [8] = assay: Inhibition of Metallo-beta-lactamase VIM-2 in Escherichia coli clinical isolate assessed as MIC for meropenem antibacterial activity at 128 ug/ml (reference value: 4 ug/ml); conditions: dose 128.0 µg/ml
Klebsiella pneumoniae [9] = assay: Substrate activity at Klebsiella pneumoniae beta-lactamase IMP-28 assessed as compound hydrolysis by measuring Kcat/Km by Michaelis-Menten analysis
Enterobacter cloacae [10] = assay: Antibacterial activity against beta-lactamase IMP1 producing Enterobacter cloacae clinical isolate measured upto 128 ug/ml; format: functional, organism-based
Escherichia coli [11] = assay: Inhibition of Metallo-beta-lactamase VIM-2 in Escherichia coli clinical isolate assessed as fold reduction in meropenem MIC at 128 ug/ml; conditions: dose 128.0 µg/ml
Escherichia coli [12] = assay: Inhibition of Metallo-beta-lactamase NDM-1 in Escherichia coli clinical isolate assessed as fold reduction in meropenem MIC at 64 ug/ml; conditions: dose 64.0 µg/ml
Escherichia coli [13] = assay: Inhibition of Metallo-beta-lactamase NDM-1 in Escherichia coli clinical isolate assessed as MIC for meropenem antibacterial activity at 64 ug/ml (reference value: 32 ug/ml); conditions: dose 64.0 µg/ml
Klebsiella pneumoniae [14] = assay: Substrate activity at Klebsiella pneumoniae beta-lactamase IMP-28 assessed as compound hydrolysis by measuring Km by Michaelis-Menten analysis
Escherichia coli [15] = assay: Antibacterial activity against beta-lactamase VIM2 producing Escherichia coli clinical isolate measured upto 128 ug/ml; format: functional, organism-based
Enterobacter cloacae [16] = assay: Inhibition of Metallo-beta-lactamase IMP-1 in Enterobacter cloacae clinical isolate assessed as fold reduction in meropenem MIC at 32 ug/ml; conditions: dose 32.0 µg/ml
Klebsiella pneumoniae [17] = assay: Inhibition of Metallo-beta-lactamase IMP-28 in Klebsiella pneumoniae clinical isolate assessed as fold reduction in meropenem MIC at 32 ug/ml; conditions: dose 32.0 µg/ml
Enterobacter cloacae [18] = assay: Inhibition of Metallo-beta-lactamase IMP-1 in Enterobacter cloacae clinical isolate assessed as MIC for meropenem antibacterial activity at 128 ug/ml (Rvb =16 ug/ml); conditions: dose 128.0 µg/ml
Enterobacter cloacae [19] = assay: Inhibition of Metallo-beta-lactamase IMP-1 in Enterobacter cloacae clinical isolate assessed as fold reduction in meropenem MIC at 128 ug/ml; conditions: dose 128.0 µg/ml
Klebsiella pneumoniae [20] = assay: Inhibition of Metallo-beta-lactamase IMP-28 in Klebsiella pneumoniae clinical isolate assessed as MIC for meropenem antibacterial activity at 64 ug/ml (reference value: 2 ug/ml); conditions: dose 64.0 µg/ml
Escherichia coli [21] = assay: Inhibition of Metallo-beta-lactamase VIM-2 in Escherichia coli clinical isolate assessed as fold reduction in meropenem MIC at 32 ug/ml; conditions: dose 32.0 µg/ml
Escherichia coli [22] = assay: Inhibition of Metallo-beta-lactamase NDM-1 in Escherichia coli clinical isolate assessed as MIC for meropenem antibacterial activity at 32 ug/ml (reference value: 32 ug/ml); conditions: dose 32.0 µg/ml
Escherichia coli [23] = assay: Inhibition of Metallo-beta-lactamase VIM-2 in Escherichia coli clinical isolate assessed as MIC for meropenem antibacterial activity at 32 ug/ml (reference value: 4 ug/ml); conditions: dose 32.0 µg/ml
[24] = Inhibition of Escherichia coli beta-lactamase VIM-2 using nitrocefin chromogenic substrate measured after 15 to 60 min at 25 degC by microplate reader
Klebsiella pneumoniae [25] = assay: Inhibition of Metallo-beta-lactamase IMP-28 in Klebsiella pneumoniae clinical isolate assessed as fold reduction in meropenem MIC at 128 ug/ml; conditions: dose 128.0 µg/ml
Escherichia coli [26] = assay: Inhibition of Metallo-beta-lactamase NDM-1 in Escherichia coli clinical isolate assessed as fold reduction in meropenem MIC at 128 ug/ml; conditions: dose 128.0 µg/ml
Escherichia coli [27] = assay: Inhibition of Metallo-beta-lactamase NDM-1 in Escherichia coli clinical isolate assessed as MIC for meropenem antibacterial activity at 128 ug/ml (reference value: 32 ug/ml); conditions: dose 128.0 µg/ml
Klebsiella pneumoniae [28] = assay: Inhibition of Metallo-beta-lactamase IMP-28 in Klebsiella pneumoniae clinical isolate assessed as MIC for meropenem antibacterial activity at 128 ug/ml (reference value: 2 ug/ml); conditions: dose 128.0 µg/ml
Klebsiella pneumoniae [29] = assay: Inhibition of Metallo-beta-lactamase IMP-28 in Klebsiella pneumoniae clinical isolate assessed as MIC for meropenem antibacterial activity at 32 ug/ml (reference value: 2 ug/ml); conditions: dose 32.0 µg/ml
Escherichia coli [30] = assay: Inhibition of Metallo-beta-lactamase VIM-2 in Escherichia coli clinical isolate assessed as MIC for meropenem antibacterial activity at 64 ug/ml (reference value: 4 ug/ml); conditions: dose 64.0 µg/ml
Escherichia coli [31] = assay: Antibacterial activity against beta-lactamase NDM1 producing Escherichia coli clinical isolate measured upto 128 ug/ml; format: functional, organism-based
Klebsiella pneumoniae [32] = assay: Substrate activity at Klebsiella pneumoniae beta-lactamase IMP-28 assessed as compound hydrolysis by measuring Kcat by Michaelis-Menten analysis
Escherichia coli [33] = assay: Inhibition of Metallo-beta-lactamase VIM-2 in Escherichia coli clinical isolate assessed as fold reduction in meropenem MIC at 64 ug/ml; conditions: dose 64.0 µg/ml
[34] = Inhibition of Enterobacter cloacae IMP-1 using nitrocefin chromogenic substrate measured after 15 to 60 min at 25 degC by microplate reader
Enterobacter cloacae [35] = assay: Inhibition of Metallo-beta-lactamase IMP-1 in Enterobacter cloacae clinical isolate assessed as MIC for meropenem antibacterial activity at 32 ug/ml (Rvb =16 ug/ml); conditions: dose 32.0 µg/ml
Enterobacter cloacae [36] = assay: Inhibition of Metallo-beta-lactamase IMP-1 in Enterobacter cloacae clinical isolate assessed as MIC for meropenem antibacterial activity at 128 ug/ml (reference value: 32 ug/ml); conditions: dose 128.0 µg/ml
Enterobacter cloacae [37] = assay: Inhibition of Metallo-beta-lactamase IMP-1 in Enterobacter cloacae clinical isolate assessed as MIC for meropenem antibacterial activity at 32 ug/ml (reference value: 32 ug/ml); conditions: dose 32.0 µg/ml
Enterobacter cloacae [38] = assay: Inhibition of Metallo-beta-lactamase IMP-1 in Enterobacter cloacae clinical isolate assessed as MIC for meropenem antibacterial activity at 64 ug/ml (reference value: 32 ug/ml); conditions: dose 64.0 µg/ml

Compound	fold change (FC) (Escherichia coli [2])	fold change (FC) (Klebsiella pneumoniae [5])	fold change (FC) (Enterobacter cloacae [7])	MIC (Escherichia coli [8]) [µg/mL]	fold change (FC) (Escherichia coli [11])	fold change (FC) (Escherichia coli [12])	MIC (Escherichia coli [13]) [µg/mL]	fold change (FC) (Enterobacter cloacae [16])	fold change (FC) (Klebsiella pneumoniae [17])	fold change (FC) (Enterobacter cloacae [19])	MIC (Klebsiella pneumoniae [20]) [µg/mL]	fold change (FC) (Escherichia coli [21])	MIC (Escherichia coli [22]) [µg/mL]	MIC (Escherichia coli [23]) [µg/mL]	IC50 [24] [µM]	fold change (FC) (Klebsiella pneumoniae [25])	fold change (FC) (Escherichia coli [26])	MIC (Escherichia coli [27]) [µg/mL]	MIC (Klebsiella pneumoniae [28]) [µg/mL]	MIC (Klebsiella pneumoniae [29]) [µg/mL]	other results
O=C(O)CSCC1=C(C(=O)O)N2C(=O)[C@@H](NC(=O)Cc3ccccc3)[C@H]2SC1	2	8	2	1 (≈ 2.37 µM)	4	2	16 (≈ 37.9 µM)	2	8	4	0.25 (≈ 0.592 µM)	2	16 (≈ 37.9 µM)	2 (≈ 4.73 µM)	53	16	4	8 (≈ 18.9 µM)	0.125 (≈ 0.296 µM)	0.25 (≈ 0.592 µM)	MIC (Enterobacter cloacae [1]): 8 µg/mL (≈ 18.9 µM); Activity (Klebsiella pneumoniae [3]): inactive; IC50 [4]: 72 µM; IC50 [6]: > 100 µM; kcat/Km (Klebsiella pneumoniae [9]): 0.169 µM⁻¹ s⁻¹; Activity (Enterobacter cloacae [10]): inactive; Km (Klebsiella pneumoniae [14]): 219 µM; Activity (Escherichia coli [15]): inactive; MIC (Enterobacter cloacae [18]): 4 µg/mL (≈ 9.47 µM); MIC (Escherichia coli [30]): 2 µg/mL (≈ 4.73 µM); Activity (Escherichia coli [31]): inactive; kcat (Klebsiella pneumoniae [32]): 37 s⁻¹; fold change (FC) (Escherichia coli [33]): 2; IC50 [34]: > 100 µM; MIC (Enterobacter cloacae [35]): 8 µg/mL (≈ 18.9 µM)
O=C(Cc1ccccc1)N[C@@H]1C(=O)N2C(C(=O)O)=C(CSCc3ccccc3)CS[C@H]12	2	8	4	1 (≈ 2.2 µM)	4	2	16 (≈ 35.2 µM)	4	4	8	0.25 (≈ 0.55 µM)	2	16 (≈ 35.2 µM)	2 (≈ 4.4 µM)	73	8	2	16 (≈ 35.2 µM)	0.25 (≈ 0.55 µM)	0.5 (≈ 1.1 µM)	Activity (Klebsiella pneumoniae [3]): inactive; IC50 [6]: 45 µM; kcat/Km (Klebsiella pneumoniae [9]): 0.529 µM⁻¹ s⁻¹; Activity (Enterobacter cloacae [10]): inactive; Km (Klebsiella pneumoniae [14]): 20.5 µM; Activity (Escherichia coli [15]): inactive; MIC (Enterobacter cloacae [36]): 4 µg/mL (≈ 8.8 µM); MIC (Enterobacter cloacae [37]): 8 µg/mL (≈ 17.6 µM); MIC (Escherichia coli [30]): 2 µg/mL (≈ 4.4 µM); Activity (Escherichia coli [31]): inactive; kcat (Klebsiella pneumoniae [32]): 10.8 s⁻¹; fold change (FC) (Escherichia coli [33]): 2; MIC (Enterobacter cloacae [38]): 8 µg/mL (≈ 17.6 µM); IC50 [34]: 43 µM
O=C(O)c1cccc(C(=O)O)n1 [DIPICOLINIC ACID]	64	> 64	32	< 0.063	> 64	64	0.5 (≈ 2.99 µM)	2	16	128	< 0.031	> 64	0.5 (≈ 2.99 µM)	< 0.063	10	> 64	> 64	< 0.5	< 0.031	0.125 (≈ 0.748 µM)	IC50 [4]: 10 µM; MIC (Enterobacter cloacae [36]): 0.25 µg/mL (≈ 1.5 µM); MIC (Enterobacter cloacae [37]): 16 µg/mL (≈ 95.7 µM); MIC (Escherichia coli [30]): < 0.063 µg/mL; fold change (FC) (Escherichia coli [33]): > 64; MIC (Enterobacter cloacae [38]): 1 µg/mL (≈ 5.98 µM)
